Molecular target: T1, mutant MGL (Homo sapiens, UniProt Q99685, L169S/L176S)
T1 sequence (Q99685 1-303 L169S/L176S): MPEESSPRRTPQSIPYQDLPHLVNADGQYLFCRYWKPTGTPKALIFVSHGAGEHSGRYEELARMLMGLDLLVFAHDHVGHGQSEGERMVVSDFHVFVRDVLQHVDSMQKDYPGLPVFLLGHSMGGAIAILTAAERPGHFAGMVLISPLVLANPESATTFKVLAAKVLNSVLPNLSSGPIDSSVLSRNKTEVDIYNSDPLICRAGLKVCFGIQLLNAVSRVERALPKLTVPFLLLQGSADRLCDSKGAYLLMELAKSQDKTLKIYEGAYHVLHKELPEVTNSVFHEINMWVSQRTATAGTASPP
Assay: MGL ThermoFluor assay - mutant
Assay type: binding
Conditions: ThermoFluor concentration-response, read-out: MGL mutant ThermoFluor Kd

SMILES	Kd
O=C(c1ccc(SCc2cccc(Cl)c2Cl)cc1)N1CC(N2CCN(C(=O)c3nccs3)CC2)C1 [Cpd 413, 1-[1-({4-[(2,3-Dichlorobenzyl)sulfanyl]phenyl}carbonyl)azetidin-3-yl]-4-(1,3-thiazol-2-ylcarbonyl)piperazine]	2 nM
O=C(c1ccc(SCc2ccc(Cl)cc2)cc1)N1CC(N2CCN(C(=O)c3nccs3)CC2)C1 [Cpd 415]	8 nM

Next, values leading:

Kd	SMILES
2910 nM	Cc1ccc(-c2ccc(C(=O)N3CC(N4CCN(C(=O)c5cscn5)CC4)C3)[nH]2)cc1 [Cpd 298]
10 nM	O=C(c1ccc(SCc2cccc(Cl)c2)cc1)N1CC(N2CCN(C(=O)c3nccs3)CC2)C1 [Cpd 412, 1-[1-({4-[(3-Chlorobenzyl)sulfanyl]phenyl}carbonyl)azetidin-3-yl]-4-(1,3-thiazol-2-ylcarbonyl)piperazine]
25 nM	O=C(c1ccc(SCc2ccc(Cl)c(Cl)c2)cc1)N1CC(N2CCN(C(=O)c3nccs3)CC2)C1 [Cpd 414, 1-[1-({4-[(3,4-Dichlorobenzyl)sulfanyl]phenyl}carbonyl)azetidin-3-yl]-4-(1,3-thiazol-2-ylcarbonyl)piperazine]
66.7 nM	O=C(c1ccccc1)N1CCN(C2CN(C(=O)c3ccc(SCc4ccc(Cl)c(Cl)c4)cc3)C2)CC1 [Cpd 417]
500 nM	O=C(c1ccccc1)N1CCN(C2CN(C(=O)c3ccc(SCc4ccc(Cl)cc4)cc3)C2)CC1 [Cpd 418]

Same assay, conditions: ThermoFluor thermal stability binding assay, read-out: MGL mutant ThermoFluor Kd

SMILES	Kd
COc1cc(C(=O)N2CC(N3CCN(C(=O)c4nccs4)CC3)C2)ccc1-c1cccc(C(F)(F)F)c1 [Cpd 247, 1-(1-{[2-Methoxy-3′-(trifluoromethyl)biphenyl-4-yl]carbonyl}azetidin-3-yl)-4-(1,3-thiazol-2-ylcarbonyl)piperazine]	0.4 nM
COc1cc(C(=O)N2CC(N3CCN(C(=O)c4ccccc4)CC3)C2)ccc1-c1cccc(C(F)(F)F)c1 [Cpd 249, 1-(1-{[2-Methoxy-3′-(trifluoromethyl)biphenyl-4-yl]carbonyl}azetidin-3-yl)-4-(phenylcarbonyl)piperazine]	10 nM
Cc1cc(C(=O)N2CC(N3CCN(C(=O)c4cscn4)CC3)C2)ccc1-c1ccc(Cl)c(C(F)(F)F)c1 [Cpd 258, 1-(1-{[4′-Chloro-2-methyl-3′-(trifluoromethyl)biphenyl-4-yl]carbonyl}azetidin-3-yl)-4-(1,3-thiazol-4-ylcarbonyl)piperazine]	3.3 nM
O=C(/C=C/c1ccccc1Cl)N1CC(N2CCN(C(=O)c3nccs3)CC2)C1 [Cpd 295, 1-{1-[(2E)-3-(2-Chlorophenyl)prop-2-enoyl]azetidin-3-yl}-4-(1,3-thiazol-2-ylcarbonyl)piperazine]	833 nM
O=C(/C=C/c1ccccc1Br)N1CC(N2CCN(C(=O)c3nccs3)CC2)C1 [Cpd 296, 1-{1-[(2E)-3-(2-Bromophenyl)prop-2-enoyl]azetidin-3-yl}-4-(1,3-thiazol-2-ylcarbonyl)piperazine]	476 nM
O=C(C=Cc1ccc2ccccc2c1)N1CC(N2CCN(C(=O)c3nccs3)CC2)C1 [Cpd 297]	333 nM
O=C(c1ccc(-c2ccccc2)cc1)N1CC(N2CCN(C(=O)c3cnon3)CC2)C1 [Cpd 308]	10000 nM
CS(=O)(=O)N1CCCc2cc(C(=O)N3CC(N4CCN(C(=O)c5cscn5)CC4)C3)ccc21 [Cpd 362]	2400 nM
O=C(c1ccc2c(c1)CCCN2c1ccccc1)N1CC(N2CCN(C(=O)c3nccs3)CC2)C1 [Cpd 372, 1-Phenyl-6-({3-[4-(1,3-thiazol-2-ylcarbonyl)piperazin-1-yl]azetidin-1-yl}carbonyl)-1,2,3,4-tetrahydroquinoline]	49.4 nM
O=C(c1ccc2c(c1)CCCN2c1cccc(C(F)(F)F)c1)N1CC(N2CCN(C(=O)c3nccs3)CC2)C1 [Cpd 374, 6-({3-[4-(1,3-Thiazol-2-ylcarbonyl)piperazin-1-yl]azetidin-1-yl}carbonyl)-1-[3-(trifluoromethyl)phenyl]-1,2,3,4-tetrahydroquinoline]	2.2 nM
CC(=O)N1c2ccc(Br)cc2CCC1C(=O)N1CC(N2CCN(C(=O)c3ccccc3)CC2)C1 (stereo not shown) [Cpd 378]	> 76700 nM
O=C(c1ccccc1)N1CCN(C2CN(C(=O)c3ccc(OCc4ccc(S(=O)(=O)N5CCOCC5)cc4)cc3)C2)CC1 [Cpd 394]	846 nM
O=C(c1ccccc1)N1CCN(C2CN(C(=O)c3ccc(OCc4ccc(Cl)c(Cl)c4)c(Cl)c3)C2)CC1 [Cpd 399]	40.8 nM
O=C(c1ccc(OCc2ccc(Cl)c(Cl)c2)c(Cl)c1)N1CC(N2CCN(C(=O)c3nccs3)CC2)C1 [Cpd 404]	1.7 nM

Results, then the compound that gave them:

Kd	SMILES
253 nM	N#Cc1csc(C(=O)N2CCN(C3CN(C(=O)c4ccc(-c5ccccc5)cc4)C3)CC2)c1 [Cpd 309]
0.4 nM	O=C(c1nccs1)N1CCN(C2CN(C(=O)c3sc4cc(-c5ccccc5)ccc4c3Cl)C2)CC1 [Cpd 343, 1-{1-[(3-Chloro-6-phenyl-1-benzothiophen-2-yl)carbonyl]azetidin-3-3yl}-4-(1,3-thiazol-2-ylcarbonyl)piperazine]
6760 nM	CS(=O)(=O)N1CCCc2cc(C(=O)N3CC(N4CCN(C(=O)c5ccccc5)CC4)C3)ccc21 [Cpd 363, 1-(Methylsulfonyl)-6-({3-[4-(phenylcarbonyl)piperazin-1-yl]azetidin-1-yl}carbonyl)-1,2,3,4-tetrahydroquinoline]
5.5 nM	O=C(c1ccc2c(c1)CCCN2c1ccc(C(F)(F)F)cc1)N1CC(N2CCN(C(=O)c3nccs3)CC2)C1 [Cpd 373, 6-({3-[4-(1,3-Thiazol-2-ylcarbonyl)piperazin-1-yl]azetidin-1-yl}carbonyl)-1-[4-(trifluoromethyl)phenyl]-1,2,3,4-tetrahydroquinoline]
229 nM	O=C(c1ccc2c(c1)CCCN2c1ncccn1)N1CC(N2CCN(C(=O)c3nccs3)CC2)C1 [Cpd 375, 1-Pyrimidin-2-yl-6-({3-[4-(1,3-thiazol-2-ylcarbonyl)piperazin-1-yl]azetidin-1-yl}carbonyl)-1,2,3,4-tetrahydroquinoline]
7140 nM	CC(=O)N1c2ccc(Br)cc2CCC1C(=O)N1CC(N2CCN(C(=O)c3nccs3)CC2)C1 (stereo not shown) [Cpd 376, 1-Acetyl-6-bromo-2-({3-[4-(1,3-thiazol-2-ylcarbonyl)piperazin-1-yl]azetidin-1-yl}carbonyl)-1,2,3,4-tetrahydroquinoline]
> 76700 nM	CC(=O)N1c2ccc(Br)cc2CCC1C(=O)N1CC(N2CCN(C(=O)c3cscn3)CC2)C1 (stereo not shown) [Cpd 377]
90.9 nM	O=C(c1ccccc1)N1CCN(C2CN(C(=O)c3ccc(OCc4cccc(OC(F)(F)F)c4)cc3)C2)CC1 [Cpd 393]
159 nM	O=C(c1ccccc1)N1CCN(C2CN(C(=O)c3ccc(OCc4ccc(C(F)(F)F)c(F)c4)cc3)C2)CC1 [Cpd 395]
4270 nM	O=C(c1ccccc1)N1CCN(C2CN(C(=O)c3ccc(OCc4ccncc4)cc3)C2)CC1 [Cpd 396]
2 nM	O=C(c1ccc(OCc2cccc(Cl)c2Cl)c(F)c1)N1CC(N2CCN(C(=O)c3nccs3)CC2)C1 [Cpd 405, 1-[1-({4-[(2,3-Dichlorobenzyl)oxy]-3-fluorophenyl}carbon-yl)azetidin-3-yl]-4-(1,3-thiazol-2-ylcarbonyl)piperazine]
1940 nM	O=C(c1ccccc1)N1CCN(C2CN(C(=O)c3ccc(OCc4ccncc4)c(Cl)c3)C2)CC1 [Cpd 408]
2030 nM	O=C(c1ccccc1)N1CCN(C2CN(C(=O)c3ccc(OCc4cccnc4)c(Cl)c3)C2)CC1 [Cpd 409]
